{"source": "paper PMC8995209", "about": "(Cell, 2022)", "molecular_target": "iaaH (Agrobacterium tumefaciens, UniProt P0A2X2)", "sequence (P0A2X2 whole entry)": "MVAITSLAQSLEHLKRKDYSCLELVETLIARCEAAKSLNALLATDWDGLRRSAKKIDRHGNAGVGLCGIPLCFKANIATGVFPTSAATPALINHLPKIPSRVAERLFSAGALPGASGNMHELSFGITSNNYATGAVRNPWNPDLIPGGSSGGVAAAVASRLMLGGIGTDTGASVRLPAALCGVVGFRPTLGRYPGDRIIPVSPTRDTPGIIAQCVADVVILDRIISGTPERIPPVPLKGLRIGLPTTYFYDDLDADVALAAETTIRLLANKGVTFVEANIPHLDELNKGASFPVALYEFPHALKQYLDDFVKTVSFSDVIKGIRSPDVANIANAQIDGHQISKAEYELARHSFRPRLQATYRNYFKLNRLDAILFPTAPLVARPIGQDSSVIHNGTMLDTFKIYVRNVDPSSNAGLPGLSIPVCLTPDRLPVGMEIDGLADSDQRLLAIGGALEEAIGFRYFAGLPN", "type": "cell-based", "conditions": "hydrolysis to NAA; 48 h conditioning", "data": [{"smiles": "NC(=O)Cc1cccc2ccccc12", "note": "[NAM, 1-naphthaleneacetamide]", "values": [{"measurement": "conditioned medium of iaaH-expressing CHO-K1 cells, auxin read out by Receiver c", "result": "also able to produce the auxin NAA"}]}]}
